Regarding `c1ccc2scnc2c1`, the boiling point – broadly, the temperature of boiling at a given pressure – was determined as 231 °C; the melting point (in general, the temperature of the solid-liquid transition) is 2 °C; the ready biodegradability result was “not readily biodegradable”.

For the molecule `O=[N+]([O-])CC(O)C(Cl)(Cl)Cl` (stereo unspecified), the melting point came out at 45.5 °C. In turn, `CC(C)(C)C(=O)C(=O)O` showed a boiling point of 189 °C and a melting point of 90.5 °C. Take `COc1cc(O)c2c(=O)c(-c3ccc(O)cc3)coc2c1`: the melting point stood at 240 °C. `CCCCCOC(=O)COc1cc(N2C(=O)C3=C(CCCC3)C2=O)c(F)cc1Cl` registered a melting point of 89 °C. For the molecule `COCC(F)(F)C(F)C(F)(F)F` (stereo unspecified), the boiling point worked out at 87.5 °C and the log10 vapour pressure (mmHg) was found to be 1.79.

`CC(C)CCOC=O` returned a boiling point of 124 °C, a log10 Henry constant (atm·m³/mol) of -3.17, a log10 vapour pressure (mmHg) of 1.18 and a melting point of -93.5 °C.

As to `C/C=C\C`, the boiling point was found to be 2.25 °C, the log10 Henry constant (atm·m³/mol) is -0.643 and the melting point was -122 °C. As for `Cc1ccc(N)cc1C`, the boiling point was determined as 228 °C, the log10 Henry constant (atm·m³/mol) is -5.73, the log10 vapour pressure (mmHg) was -1.55 and the melting point amounted to 51 °C. Besides, the ready biodegradability result is “readily biodegradable”. As to `CCCC(=O)N(C)C`, the boiling point amounted to 186 °C and the melting point was -40 °C. In turn, `Cc1[nH]c(C)c(C)c1C` returned a melting point of 111 °C. Turning to `OC1CCCCC1c1ccccc1` (stereo unspecified), the boiling point was 228 °C and the log10 vapour pressure (mmHg) was -1.44.

For the molecule `CCC[C@](C)(O)CC`, the boiling point stood at 143 °C and the log10 vapour pressure (mmHg) amounted to 0.291. For `CCc1ccnc(C)c1`, the boiling point was found to be 179 °C. In turn, `O=C(O)CCCC(=O)c1ccccc1` came in with a melting point of 127 °C. The molecule `CC1(C)C2CCC(C=O)C1C2` (stereo unspecified) displayed a boiling point of 220 °C. With `CCC=CCC`, the boiling point was found to be 66.8 °C, the log10 vapour pressure (mmHg) amounted to 2.22 and the melting point is -114 °C. As to `CCCCCCCCCCCI`, the log10 vapour pressure (mmHg) was -2.35. Molecule `Fc1c(F)c(F)c(C(F)(F)F)c(F)c1F` gave a boiling point of 104 °C, a log10 vapour pressure (mmHg) of 1.46 and a melting point of -65.6 °C. With `C=COC(=O)CC`, the boiling point was determined as 91.2 °C, the melting point is -80 °C and the ready biodegradability entry is “readily biodegradable”. Regarding `C(=Nc1ccccc1)Nc1ccccc1`, the melting point was 142 °C. On to `N#CC(=O)c1ccccc1`, for which the boiling point turned out to be 206 °C and the melting point was 32.5 °C.

As for `O=C(O)c1ccnc(C(=O)O)c1C(=O)O`, the melting point was determined as 250 °C. In the case of `CCCCOC(=O)CCCC`, the boiling point worked out at 186 °C and the melting point was -92.8 °C. `c1ccc(C(c2ccccc2)(c2ccccc2)c2ccccc2)cc1` had a boiling point of 431 °C and a melting point of 282 °C. Turning to `CCC(C)Nc1ccc(NC(C)CC)cc1` (stereo unspecified), the melting point came to 18 °C. For `CCNP(=S)(OC)O/C(C)=C/C(=O)OC(C)C` (stereo unspecified), the log10 vapour pressure (mmHg) was -4.84. `CCC(C)(O)CCC(C)C` (stereo unspecified) returned a boiling point of 173 °C. For `CC(C(=O)O)(c1ccccc1)c1ccccc1`, the melting point is 176 °C. `O=C(O)[C@H]1CC[C@H]1C(=O)O` showed a melting point of 131 °C.

`[N-]=[N+]=Nc1ccccc1` returned a melting point of -27.5 °C. Take `O=[N+]([O-])c1cccc2cccc(Cl)c12`: the melting point stood at 95.8 °C. `CN(C)C(=O)Nc1cccc(F)c1` registered a log10 Koc (L/kg) of 1.73.

`NCc1ccncc1` yielded a boiling point of 230 °C and a melting point of -7.6 °C.

Regarding `COCC(C)OC(C)=O` (stereo unspecified), the boiling point came out at 146 °C, the log10 Koc (L/kg) was 0.36 and the log10 vapour pressure (mmHg) came to 0.593. Turning to `NC=O`, the boiling point turned out to be 220 °C, the log10 vapour pressure (mmHg) was -1.21, the melting point was found to be 2.55 °C and the ready biodegradability result was “readily biodegradable”. On to `Cc1c(F)cccc1Cl`, for which the boiling point worked out at 154 °C. Molecule `C=C1C[C@@]23CC[C@H]4[C@@](C)(CCC[C@@]4(C)C(=O)O[C@@H]4O[C@H](CO)[C@@H](O)[C@H](O)[C@H]4O)[C@@H]2CC[C@]1(O[C@@H]1O[C@H](CO)[C@@H](O)[C@H](O)[C@H]1O[C@@H]1O[C@H](CO)[C@@H](O)[C@H](O)[C@H]1O)C3` showed a melting point of 198 °C. Molecule `CC[C@H]1CN2CCc3cc(OC)c(OC)cc3[C@@H]2C[C@@H]1C[C@@H]1NCCc2cc(O)c(OC)cc21` came in with a melting point of 116 °C.

Consider `CNC(=O)n1cc(F)c(=O)[nH]c1=O`, for which the melting point worked out at 226 °C. Turning to `CCCCCCCCCCCCCCCCCCCCCCCCCCCCCCCC`, the boiling point was determined as 467 °C, the log10 biodegradation half-life (days) worked out at 2.45, the melting point was found to be 69.7 °C and the ready biodegradability entry was “readily biodegradable”. Molecule `CCC(=O)c1ccc(C)cc1` gave a boiling point of 236 °C, a log10 vapour pressure (mmHg) of -1.03 and a melting point of 7.2 °C. `CC(C)C(=O)OCCc1ccccc1`: the boiling point turned out to be 250 °C. As to `C=Cc1cccc(Cl)c1`, the log10 vapour pressure (mmHg) was -0.0083 and the ready biodegradability result is given as “not readily biodegradable”. Molecule `C=CC=COC` displayed a boiling point of 91.5 °C.

With `Nc1ccc(S(=O)(=O)c2ccc(NCCO)cc2)cc1`, the melting point stood at 131 °C. The molecule `O=C(Cl)c1cccc(F)c1` had a boiling point of 189 °C and a melting point of -30 °C.

`CCOC(=O)CC(SP(=O)(OC)OC)C(=O)OCC` (stereo unspecified): the log10 vapour pressure (mmHg) is -5.01. For the molecule `CC(=O)CC(=O)O`, the melting point was determined as 36.5 °C. With `CCC(C)CCC(C)(O)CC` (stereo unspecified), the boiling point is 202 °C and the melting point is -67.5 °C. Molecule `CC1=C(/C=C/C(C)=C/C=C/C(C)=C/C=O)C(C)(C)CCC1` showed a melting point of 63 °C.

Consider `CCOc1ccc(NS(=O)(=O)c2ccc(N)cc2)nn1`, for which the melting point came out at 183 °C.

(Values after the OPERA property sets (Mansouri et al. 2018).)
